The record followed here is patent publication US20260315464A1, “COMPOSITIONS, METHODS, AND SYSTEMS FOR MODULATING SPLICING OF MSH3” (REVIR THERAPEUTICS, INC., priority 2023, published 2026).

In this test the test system is MSH3. The test can be described thus: QPCR assay for levels of MSH3 upon compound treatment in HEK293T or AD293 cells (fold-change of MSH3 transcript, EC50 of MSH3 downregulation; total MSH3 exons 13/14, exons 20/21; Table 8). It counts as cell-based. Particulars: for EC50: EC50 of MSH3 downregulation, XtalPi; for mrna remaining at 1 µM / mrna remaining at 10 µM: Homo sapiens, fold-change of the MSH3 transcript, normalized to GAPDH; for mrna remaining at 1 µM: 1 μM compound; for mrna remaining at 10 µM: 10 μM compound. The essentials:
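MSH3 mRNA was quantified by TaqMan qPCR covering exons 13/14, exons 20/21, exon 13/PE14A and exon 20/PE21A, with GAPDH as reference. Cells used were HEK293T or AD293, treated with compound at 1 μM and […].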

Usually EC50 stands for the concentration that produces a half-maximal response. A higher EC50 goes with a need for much substance. `CC[C@]12CC[C@](CC)(C[C@@H](Oc3ccc(N4Cc5ncc(-c6cn(C)nc6C)cc5C4=O)nn3)C1)N2` [Compound 239, 6-(6-(((1R,3s,5S)-1,5-diethyl-8-azabicyclo[3.2.1]octan-3-yl)oxy)pyridazin-3-yl)-3-(1,3-dimethyl-1H-pyrazol-4-yl)-6,7-dihydro-5H-pyrrolo[3,4-b]pyridin-5-one]: a half-maximal response (EC50) required 2040 nM, the mrna remaining at 1 µM came to 84% and the mrna remaining at 10 µM amounted to 19%.
On the same counts, the results for `CC[C@]12CC[C@](C)(C[C@@H](Oc3ccc(N4Cc5ncc(-c6cn(C)nc6C)cc5C4=O)nn3)C1)N2` [Compound 240, 3-(1,3-dimethyl-1H-pyrazol-4-yl)-6-(6-(((1S,3R,5R)-1-ethyl-5-methyl-8-azabicyclo[3.2.1]octan-3-yl)oxy)pyridazin-3-yl)-6,7-dihydro-5H-pyrrolo[3,4-b]pyridin-5-one] are 2310 nM, 87% and 16%.
For the compound `Cn1cc(-c2cnc3c(c2)C(=O)N(c2ccc(O[C@H]4C[C@]5(C)CC[C@](C)(C4)N5)nn2)C3)c(Cl)n1` [Compound 261, 3-(3-chloro-1-methyl-1H-pyrazol-4-yl)-6-(6-(((1R,3s,5S)-1,5-dimethyl-8-azabicyclo[3.2.1]octan-3-yl)oxy)pyridazin-3-yl)-6,7-dihydro-5H-pyrrolo[3,4-b]pyridin-5-one], the mrna remaining at 1 µM was 48% and the mrna remaining at 10 µM was determined as 7%.
In the case of `Cc1nn(C)cc1-c1cc(F)c2c(c1)C(=O)N(c1ccc(N(C)[C@H]3C[C@]4(C)CC[C@](C)(C3)N4)nn1)C2` [Compound 274, 6-(1,3-dimethyl-1H-pyrazol-4-yl)-2-(6-(((1R,3s,5S)-1,5-dimethyl-8-azabicyclo[3.2.1]octan-3-yl)(methyl)amino)pyridazin-3-yl)-4-fluoroisoindolin-1-one], a half-maximal response (EC50) required 454 nM and the mrna remaining at 1 µM amounted to 17%.
As to `Cc1nn(C)cc1-c1cc(F)c2c(c1)C(=O)N(c1ccc(N(C)C3CC(C)(C)NC(C)(C)C3)nn1)C2` [Compound 275, 6-(1,3-dimethyl-1H-pyrazol-4-yl)-4-fluoro-2-(6-(methyl(2,2,6,6-tetramethylpiperidin-4-yl)amino)pyridazin-3-yl)isoindolin-1-one], the mrna remaining at 1 µM was found to be 79% and the mrna remaining at 10 µM came out at 26%.
On the same counts, the results for `Cc1nn(C)cc1-c1cc(F)c2c(c1)C(=O)N(c1ccc(OC3CC(C)(C)NC(C)(C)C3)nn1)C2` [Compound 276, 6-(1,3-dimethyl-1H-pyrazol-4-yl)-4-fluoro-2-(6-((2,2,6,6-tetramethylpiperidin-4-yl)oxy)pyridazin-3-yl)isoindolin-1-one] are 103% and 38%.
The like results for `Cc1nn(C)cc1-c1cc(F)c2c(c1)C(=O)N(c1ccc(O[C@H]3C[C@]4(C)CC[C@](C)(C3)N4)nn1)C2` [Compound 278, 6-(1,3-dimethyl-1H-pyrazol-4-yl)-2-(6-(((1R,3s,5S)-1,5-dimethyl-8-azabicyclo[3.2.1]octan-3-yl)oxy)pyridazin-3-yl)-4-fluoroisoindolin-1-one] were, in that order, 64% and 14%.
On the same counts, the results for `Cc1nn(C)cc1-c1cc(F)c2c(c1)C(=O)N(c1ccc(O[C@H]3CC(C)(C)NC(C)(C)[C@H]3F)nn1)C2` [Compound 280, 6-(1,3-dimethyl-1H-pyrazol-4-yl)-4-fluoro-2-(6-(((3R,4S)-3-fluoro-2,2,6,6-tetramethylpiperidin-4-yl)oxy)pyridazin-3-yl)isoindolin-1-one] are 99% and 66%.
Turning to `Cc1nn(C)cc1-c1cc(F)c2c(c1)C(=O)N(c1ccc(O[C@H]3C[C@]4(C)CC[C@@](C)(N4)[C@H]3F)nn1)C2` [Compound 281, 6-(1,3-dimethyl-1H-pyrazol-4-yl)-4-fluoro-2-(6-(((1R,2R,3S,5S)-2-fluoro-1,5-dimethyl-8-azabicyclo[3.2.1]octan-3-yl)oxy)pyridazin-3-yl)isoindolin-1-one], the mrna remaining at 1 µM was found to be 85% and the mrna remaining at 10 µM came out at 41%.
For `Cc1nn(C)nc1-c1cc(F)c2c(c1)C(=O)N(c1ccc(OC3CC(C)(C)NC(C)(C)C3)nn1)C2` [Compound 282, 6-(2,5-dimethyl-2H-1,2,3-triazol-4-yl)-4-fluoro-2-(6-((2,2,6,6-tetramethylpiperidin-4-yl)oxy)pyridazin-3-yl)isoindolin-1-one], the mrna remaining at 1 µM stood at 30% and the mrna remaining at 10 µM worked out at 59%.
For `Cc1nn(C)nc1-c1cc(F)c2c(c1)C(=O)N(c1ccc(O[C@H]3C[C@]4(C)CC[C@](C)(C3)N4)nn1)C2` [Compound 283, 6-(2,5-dimethyl-2H-1,2,3-triazol-4-yl)-2-(6-(((1R,3s,5S)-1,5-dimethyl-8-azabicyclo[3.2.1]octan-3-yl)oxy)pyridazin-3-yl)-4-fluoroisoindolin-1-one], the EC50 was 799 nM, the mrna remaining at 1 µM came out at 48% and the mrna remaining at 10 µM stood at 11%.
Take `Cc1nn(C)cc1-c1cc(F)c2c(c1)C(=O)N(c1ccc(OC3CC(C)(C)NC4(CC4)C3)nn1)C2` (stereo not drawn) [Compound 284, 6-(1,3-dimethyl-1H-pyrazol-4-yl)-2-(6-((5,5-dimethyl-4-azaspiro[2.5]octan-7-yl)oxy)pyridazin-3-yl)-4-fluoroisoindolin-1-one]: the mrna remaining at 1 µM was 91% and the mrna remaining at 10 µM stood at 73%.
The like results for `Cc1nc(C)c(-c2cc(F)c3c(c2)C(=O)N(c2ccc(O[C@H]4C[C@]5(C)CC[C@](C)(C4)N5)nn2)C3)s1` [Compound 286, 2-(6-(((1R,3s,5S)-1,5-dimethyl-8-azabicyclo[3.2.1]octan-3-yl)oxy)pyridazin-3-yl)-6-(2,4-dimethylthiazol-5-yl)-4-fluoroisoindolin-1-one] were, in that order, 117% and 59%.
In the case of `Cc1nc(C)c(-c2cc(F)c3c(c2)C(=O)N(c2ccc(N(C)[C@H]4C[C@]5(C)CC[C@](C)(C4)N5)nn2)C3)s1` [Compound 289, 2-(6-(((1R,3s,5S)-1,5-dimethyl-8-azabicyclo[3.2.1]octan-3-yl)(methyl)amino)pyridazin-3-yl)-6-(2,4-dimethylthiazol-5-yl)-4-fluoroisoindolin-1-one], the mrna remaining at 1 µM turned out to be 73% and the mrna remaining at 10 µM was 22%.
Take `Cc1nn(C)cc1-c1cc(F)c2c(c1)C(=O)N(c1cnc(N(C)[C@H]3C[C@]4(C)CC[C@](C)(C3)N4)nn1)C2` [Compound 291, 6-(1,3-dimethyl-1H-pyrazol-4-yl)-2-(3-(((1R,3s,5S)-1,5-dimethyl-8-azabicyclo[3.2.1]octan-3-yl)(methyl)amino)-1,2,4-triazin-6-yl)-4-fluoroisoindolin-1-one]: the mrna remaining at 1 µM was 93% and the mrna remaining at 10 µM was 81%.
Consider `Cc1nn(C)nc1-c1cc(F)c2c(c1)C(=O)N(c1ccc(N(C)C3CC(C)(C)NC(C)(C)C3)nn1)C2` [Compound 293, 6-(2,5-dimethyl-2H-1,2,3-triazol-4-yl)-4-fluoro-2-(6-(methyl(2,2,6,6-tetramethylpiperidin-4-yl)amino)pyridazin-3-yl)isoindolin-1-one], for which the EC50 is approximately 1060 nM, the mrna remaining at 1 µM is 54% and the mrna remaining at 10 µM was 12%.
The like results for `Cc1nn(C)nc1-c1cc(F)c2c(c1)C(=O)N(c1ccc(N(C)[C@H]3C[C@]4(C)CC[C@](C)(C3)N4)nn1)C2` [Compound 294, 6-(2,5-dimethyl-2H-1,2,3-triazol-4-yl)-2-(6-(((1R,3s,5S)-1,5-dimethyl-8-azabicyclo[3.2.1]octan-3-yl)(methyl)amino)pyridazin-3-yl)-4-fluoroisoindolin-1-one] were, in that order, 480 nM, 27% and 12%.
As to `Cc1nn(C)cc1-c1cc(F)c2c(c1)C(=O)N(c1ccc(N3CCN[C@@H](C(C)C)C3)nn1)C2` [Compound 296, (S)-6-(1,3-dimethyl-1H-pyrazol-4-yl)-4-fluoro-2-(6-(3-isopropylpiperazin-1-yl)pyridazin-3-yl)isoindolin-1-one], the mrna remaining at 1 µM came to 54%.
As to `Cc1nn(C)nc1-c1cc(F)c2c(c1)C(=O)N(c1ccc(N3CCN[C@@H](C(C)(C)C)C3)nn1)C2` [Compound 298, (S)-2-(6-(3-(tert-butyl)piperazin-1-yl)pyridazin-3-yl)-6-(2,5-dimethyl-2H-1,2,3-triazol-4-yl)-4-fluoroisoindolin-1-one], the mrna remaining at 1 µM is 89% and the mrna remaining at 10 µM came to 29%.
On the same counts, the results for `Cn1ncc(-c2ccc3c(c2)C(=O)N(c2ccc(OC4CC(C)(C)NC(C)(C)C4)nn2)C3)n1` [Compound 362, 6-(2-methyl-2H-1,2,3-triazol-4-yl)-2-(6-((2,2,6,6-tetramethylpiperidin-4-yl)oxy)pyridazin-3-yl)isoindolin-1-one] are 65% and 75%.
On the same counts, the results for `CN(c1ccc(N2Cc3ccc(-c4cnn(C)c4)cc3C2=O)nn1)[C@H]1C[C@]2(C)CC[C@](C)(C1)N2` [Compound 367, 2-(6-(((1R,3s,5S)-1,5-dimethyl-8-azabicyclo[3.2.1]octan-3-yl)(methyl)amino)pyridazin-3-yl)-6-(1-methyl-1H-pyrazol-4-yl)isoindolin-1-one] are 57% and 27%.
Take `CN(c1ccc(N2Cc3ccc(-c4cnn(C)n4)cc3C2=O)nn1)C1CC(C)(C)NC(C)(C)C1` [Compound 370, 2-(6-(methyl(2,2,6,6-tetramethylpiperidin-4-yl)amino)pyridazin-3-yl)-6-(2-methyl-2H-1,2,3-triazol-4-yl)isoindolin-1-one]: the mrna remaining at 1 µM turned out to be 69% and the mrna remaining at 10 µM turned out to be 61%.
